Reference: US20240002377A1, “PYRROLOPYRIDINE COMPOUND AND APPLICATION THEREOF” (MEDSHINE DISCOVERY INC., priority 2020, published 2024)

Target: BTK^C481S (Homo sapiens (Human), UniProt Q06187, C481S)
Test: BTK enzyme activity assay (33P-ATP filter-binding)
Type: biochemical
Details: 200 μM ATP; 20 min pre-incubation, 2 h reaction at room temperature; radiometric filter-binding
Protocol: Assay Example 1: BTK Enzyme Activity Assay
The specific assay process of BTK enzyme activity assay is as follows: Buffer solution: 20 mM hydroxyethyl piperazine ethanesulfonic acid (Hepes) (pH 7.5), 10 mM magnesium chloride, 1 mM ethylenebis(oxyethylenenitrilo)tetraacetic acid (EGTA), 0.02% polyoxyethylene dodecyl ether (Brij35), 0.02 mg/mL BSA, 0.1 mM sodium vanadate (Na3VO4), 2 mM dithiothreitol (DTT), 1% DMSO, 200 μM adenosine triphosphate (ATP). • 1. The substrate was prepared in freshly prepared reaction buffer; • 2. The required cofactor was added to the above-mentioned substrate solution; • 3. The kinase BTK^C481S sis was added to the above-mentioned substrate solution and mix well; • 4. The compound dissolved in DMSO was added to the kinase reaction mixture through Echo550 (Acoustic technology; nanolite range), and the mixture was incubated at room temperature for 20 minutes; • 5. ^33P-ATP (specific activity of radioactivity is 10 μCi/μL) was added to the reaction mixture to initiate the reaction; • 6. The mixture was incubated at room temperature for 2 hours; • 7. The radioactivity was detected by filter-binding method; • 8. Kinase activity data represented the percentage of remaining kinase activity in the assay sample compared to the vehicle (dimethyl sulfoxide) reaction.

BTK^C481S, sequence (Q06187 whole entry C481S): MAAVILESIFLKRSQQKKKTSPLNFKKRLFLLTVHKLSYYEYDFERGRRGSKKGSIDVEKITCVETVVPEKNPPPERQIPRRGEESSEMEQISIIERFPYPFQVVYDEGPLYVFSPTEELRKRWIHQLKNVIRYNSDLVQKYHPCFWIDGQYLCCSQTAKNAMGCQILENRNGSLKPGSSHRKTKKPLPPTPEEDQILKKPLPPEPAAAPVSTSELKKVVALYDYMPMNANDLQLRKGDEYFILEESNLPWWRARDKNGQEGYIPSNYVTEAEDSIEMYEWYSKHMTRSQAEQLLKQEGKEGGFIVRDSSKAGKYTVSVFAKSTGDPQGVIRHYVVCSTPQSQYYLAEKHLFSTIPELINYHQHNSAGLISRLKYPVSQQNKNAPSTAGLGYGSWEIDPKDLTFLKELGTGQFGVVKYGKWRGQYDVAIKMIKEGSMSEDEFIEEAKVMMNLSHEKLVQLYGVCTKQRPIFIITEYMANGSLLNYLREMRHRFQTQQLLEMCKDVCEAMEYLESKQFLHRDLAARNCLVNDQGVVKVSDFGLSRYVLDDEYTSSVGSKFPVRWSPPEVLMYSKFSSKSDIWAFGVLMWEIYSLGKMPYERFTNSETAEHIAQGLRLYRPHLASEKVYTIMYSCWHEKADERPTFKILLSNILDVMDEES

| IC50 | Compound |
| --- | --- |
| 8.9 nM | O=C(c1ccc(Oc2ccccc2)cc1Cl)c1c[nH]c2ncc(F)c(N[C@@H]3CC[C@@H](CO)OC3)c12 [Compound 5] |
| 74.2 nM | CO[C@@H]1C[C@@H](CO)OC[C@@H]1Nc1c(C#N)cnc2[nH]cc(C(=O)c3ccc(Oc4ccccc4)cc3Cl)c12 [Compound 3] |
| 7.4 nM | N#Cc1cnc2[nH]cc(C(=O)c3ccc(Oc4ccccc4)cc3Cl)c2c1N[C@@H]1CC[C@@H](CO)OC1 [Compound 4] |

The remaining lines, values behind:

| Compound | IC50 |
| --- | --- |
| N#Cc1cnc2[nH]cc(C(=O)c3ccc(Oc4ccccc4F)cc3Cl)c2c1N[C@@H]1CC[C@@H](CO)OC1 [Compound 2] | 11.7 nM |
| N#Cc1cnc2[nH]cc(C(=O)c3ccc(Oc4cccc(F)c4)cc3Cl)c2c1N[C@@H]1CC[C@@H](CO)OC1 [Compound 1] | 58.9 nM |
